Measurements published in ChEMBL document CHEMBL1201862, “PubChem BioAssay data set” (2004).
Calls of active or inactive are those of the source.

Legend:
[1] = blockers of HIV-1 envelope-mediated cell-cell fusion – cherry-pick, dose response (AID 652057); assay type: functional, cell-based
[2] = viability loss in CEM21 cells – cell-based, CellTiter-Glo luminescence, cherry-picked, cytotoxicity control for viral fusion inhibitor project, dose response (AID 652042); assay type: functional;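 also: potency for signal decrease meaning cytotoxicity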
[3] = blockers of HIV-1 ZM109 envelope-driven cell-cell fusion – HeLa effector, CEM target cells, luciferase, cherry-pick, dose response (AID 652058); assay type: functional, cell-based;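 also: luciferase signal from HIV-1 Env mediated cell-cell fusion of effector and target cells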
[4] = HIV-1 AD8 envelope cell-cell fusion blockers – cherry-pick, dose response (AID 652062); assay type: functional, cell-based;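 also: luciferase signal from cell-cell fusion driven by HIV-1 clade B AD8 Env; potency is for inhibitors of fusion seen as a drop in luminescence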
[5] = Trypanosoma cruzi growth suppression in host cells – NIH3T3 host cells, beta-gal luminescence, confirmation (AID 2044); assay type: functional, cell-based;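 also: intracellular parasites grown in NIH/3T3 mouse fibroblasts as host cells; luminescent beta-galactosidase reporter signal from transgenic T. cruzi replicating inside host cells; inhibitors lower the luminescence signal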
[6] = NIH3T3 cell viability loss – ATP luminescence, mouse fibroblasts, counter-screen, dose response (AID 2010); assay type: functional, cell-based;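 also: cells exposed to compound for about 90 hours before reading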
[7] = target: Fructose-bisphosphate aldolase (Mycobacterium tuberculosis, UniProt P9WQA3); assay: Fluorescence-based biochemical high throughput dose response assay for inhibitors of the fructose-bisphosphate aldolase (FBA) of M. tuberculosis.; assay type: functional
Fructose-bisphosphate aldolase, sequence (P9WQA3 whole entry): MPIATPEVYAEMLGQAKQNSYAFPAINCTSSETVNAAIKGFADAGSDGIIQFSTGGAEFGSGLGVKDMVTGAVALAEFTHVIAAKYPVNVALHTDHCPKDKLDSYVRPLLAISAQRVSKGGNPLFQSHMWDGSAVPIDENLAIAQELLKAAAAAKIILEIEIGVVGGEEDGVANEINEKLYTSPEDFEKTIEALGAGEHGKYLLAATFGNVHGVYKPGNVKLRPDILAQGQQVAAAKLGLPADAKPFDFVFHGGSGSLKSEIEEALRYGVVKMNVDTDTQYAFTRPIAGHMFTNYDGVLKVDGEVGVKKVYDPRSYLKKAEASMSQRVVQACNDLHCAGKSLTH

Protein Tat = Protein Tat (Human immunodeficiency virus type 1 group M subtype B (isolate HXB2)(HIV-1), UniProt P04608); assay type: functional;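 also: tat binding to TAR RNA read out by fluorescence polarization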
Protein Tat, sequence (P04608 whole entry): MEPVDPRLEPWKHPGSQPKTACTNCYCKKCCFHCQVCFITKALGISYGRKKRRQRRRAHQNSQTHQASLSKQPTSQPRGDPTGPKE

cells [8] = assay type: functional, cell-based
[9] = target: T1, Trace amine-associated receptor 1 (Homo sapiens, UniProt Q96RJ0); assay: Fluorescence-based cell-based high throughput dose response assay to identify agonists of the human trace amine associated receptor 1 (TAAR1).; assay type: functional
T1 sequence (Q96RJ0 whole entry): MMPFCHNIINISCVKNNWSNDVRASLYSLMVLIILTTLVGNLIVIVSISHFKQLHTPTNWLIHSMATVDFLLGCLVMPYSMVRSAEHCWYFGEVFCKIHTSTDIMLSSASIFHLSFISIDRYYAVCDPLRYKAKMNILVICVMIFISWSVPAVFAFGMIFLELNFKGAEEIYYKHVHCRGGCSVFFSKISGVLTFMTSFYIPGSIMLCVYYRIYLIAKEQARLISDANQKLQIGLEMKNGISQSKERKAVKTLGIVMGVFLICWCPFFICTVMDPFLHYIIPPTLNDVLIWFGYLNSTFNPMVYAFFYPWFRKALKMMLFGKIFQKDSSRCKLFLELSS

[10] = target: T1, Trace amine-associated receptor 1; assay: Counterscreen for agonists of the human trace amine associated receptor 1 (hTAAR1): Fluorescence-based cell-based high throughput dose response assay to identify hTAAR1 agonist that also desensitize TAAR1 receptor response.; assay type: functional
cells [11] = assay type: functional, cell-based; remark: listed apart in the source
Cryptococcus neoformans = assay: PubChem AID 686997; assay type: functional, organism-based
HeLa = assay: viability loss in HeLa cells – cell-based, ATP luminescence, cherry-pick samples, cytotoxicity control, dose response (AID 687004); assay type: functional; conditions: Homo sapiens
HepG2 = assay: HepG2 Cytotoxicity Assay Measured in Cell-Based System Using Plate Reader - 7071-02_Inhibitor_Dose_CherryPick_Activity.; assay type: functional; conditions: Homo sapiens
[12] = reduction of Shn3 3'UTR-driven luciferase in osteoblasts – cell-based, Clone20 osteoblasts, firefly luciferase, cherry-picked, dose response (AID 624132); assay type: functional;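 also: firefly luciferase luminescence from reporter carrying the Shn3 3'UTR in osteoblasts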
[13] = loss of viability in HepG2 cells – cell-based, CellTiter-Glo, cherry-picked, cytotoxicity control for Shn3 inhibitor project, dose response (AID 624134); assay type: functional
[14] = non-specific 3'UTR reporter inhibition in Clone20-Shn3RL – cell-based, Renilla luciferase, cherry-picked, counter-screen for Shn3 inhibitor project, dose response (AID 624133); assay type: functional
[15] = Shn3 3'UTR reporter signal decrease – cell-based, Clone20 osteoblasts, firefly luciferase, cherry-pick, set 2, Schnurri-3 inhibitor project, dose response (AID 720490); assay type: functional;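 also: actives lower the luminescence signal as inhibitors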
[16] = EF1alpha-driven Renilla reporter with control 3'UTR suppression – Clone20-Shn3RL cells, dual-Glo, cherry-pick, set 2, counter-screen for Shn3 3'UTR targeting project, dose response (AID 720724); assay type: functional, cell-based; conditions: Dual-Go Shn3RL

Which AC50 [1] does the source give for `Cc1nc2ccc(NC(=O)c3ccc(Cl)c(S(=O)(=O)N(C)c4ccccc4)c3)cc2s1` here?
The AC50 was 35.5 µM (active).

What about the AC50 [2] of the same compound?
Its AC50 is 58.6 µM (active).

And the AC50 [3]?
The AC50 was 3.88 µM (active).

What about the AC50 [4] of the same compound?
Its AC50 is 3.19 µM (active).

Which EC50 [5] does the source give for `Cc1c(C(=O)Nc2ccc(Cl)cc2)c2ccccn2c1CCc1ccncc1` here?
Its EC50 is 2.16 µM (active).

And the EC50 [6]?
Its EC50 is > 30 µM (not active).

And the IC50 [7]?
The IC50 was 0.468 µM (active).

What about the IC50 (Protein Tat) of the same compound?
Its IC50 is > 100 µM (active).

For `CCC(C)(C)n1nnnc1C(c1ccc(O)cc1)N1CCc2ccccc2C1` (stereo not given), which IC50 (cells [8]) is on record?
Its IC50 is > 29.9 µM (inactive).

What about the EC50 [9] of the same compound?
The EC50 was 0.333 µM (active).

What about the IC50 [10] of the same compound?
The IC50 was 1.26 µM (active).

What about the EC50 (cells [11]) of the same compound?
The EC50 was > 29.9 µM (inactive).

Which results are given for `CCOC(=O)NC(=S)Nc1ccc(C(C)(C)C)cc1Br`?
AC50 (Cryptococcus neoformans): > 70 µM (inactive); AC50 (HeLa): > 52 µM (inactive); AC50 (HepG2): 18.1 µM (active)

With `Cc1nc(NC(C)c2ccccc2)c2oc3ccccc3c2n1` (stereo not given) as the compound, how does the AC50 [12] read?
The AC50 was 3.06 µM (active).

What about the AC50 [13] of the same compound?
The AC50 was 35.1 µM (active).

And the AC50 [14]?
The AC50 was 24 µM (active).

And the AC50 [15]?
The AC50 was 3.44 µM (active).

And the AC50 [16]?
The AC50 was 46.5 µM (active).
